Experimental data from US4912092A, “Methods for increasing extracellular adenosine and for stabilizing mast cells” (The Regents of the University of California, priority 1987, dated 1990).
Values joined by “and” are separate entries in the source; they are usually repeats but may differ in a detail not shown here. Identical values can stand only once. “Also recorded” adds a separate entry of the source.

Key:
adenosine = experiment: Coronary venous adenosine concentrations during coronary artery occlusion in dogs; format: in vivo, dog
Procedure: FIG. 3. […] Coronary venous blood was collected into chilled 2N perchloric acid at various times before and after coronary artery occlusion. Supernatants from these extracts were neutralized with alamine and freon and evaluated by high performance liquid chromotography.
(§1) Thirteen mongrel dogs were anesthetized with phenobarbital. […] C.V. Dis. 20; 55 (1977). […] Two of the surviving saline-treated animals fibrillated. […] The range was 4.4 to 100 μM.

[1] = dog, in vivo, iv
Excerpt: Thirteen mongrel dogs were anesthetized with phenobarbital. […] C.V. Dis. 20; 55 (1977).

[2] = Plasma, CSF, erythrocyte and urine measurements in the patient trial; format: in vivo, human
Excerpt: (§2) Following authorization, therapeutic trials with AICA riboside were started in two patients with adenylosuccinase deficiency (autism). […] On Day 55, both patients were briefly readmitted for clinical, biochemical and psychiatric evaluation. […] Treatment was maintained until Day 71, and arrested at that date.
A correct assessment of the renal loss of the nucleoside could not be obtained.

[3] = tested on: Mouse bone marrow-derived mast cells; experiment: Mast cell leukotriene C4 release (radioimmune assay); format: cell-based
Procedure: By preventing mast cell degranulation, it is possible to prevent or control a patient's allergic response. Bone marrow obtained from Balb/C mice femurs was cultured in a 1:1 mixture of Razin media and conditioned media, produced by co-culturing splenocytes from C57B1/6J and C3H mice in the presence of Concanavalin A as described by Razin et al. in the Proc. Natl. Acad. Sci. USA 28: 2559-2561, 1981. After weekly passaging and at least 15 days in tissue culture, the resulting cells were 90% pure mast cells and 95% viable as assessed by Trypan blue exclusion. Cells exposed to ribavirin in culture were washed three times prior to use in experiments. Parallel cultures of cells grown in media alone were used as controls for pharmacologically manipulated mast cells. Cell growth was assessed by counting cells at particular time points and comparing actual numbers of ribavirin-treated cells to numbers of cells grown in media alone.

ischemic myocardium = experiment: Regional myocardial blood flow during coronary artery occlusion (radiolabelled microspheres); format: in vivo, dog
Excerpt: FIG. 4. […] The means plus the standard deviations are graphed. […] Thirteen mongrel dogs were anesthetized with phenobarbital. […] C.V. Dis. 20; 55 (1977).

[4] = dog, in vivo
Procedure: Thirteen mongrel dogs were anesthetized with phenobarbital. The anterior coronary vein was cannulated and a blood sample was collected into 2N perchloric acid. […] Regional myocardial blood flow was measured within 15 μm radiolabelled spheres infused into the left atzium at 5 and 60 minutes during the ischemic period, as described by Heymann et al. in Prog. […] The electrocardiogram and arterial pressure were monitored throughout the period of ischemia.

arrhythmias = experiment: Arrhythmias (PVD, VTAC) during ischemia in dogs; format: in vivo, dog
Procedure: as §1
One consequence of myocardial ischemia is arrhythmia and the frequency of arrhythmias is related to the degree of reduced blood flow. […] Electrocardiograms recorded during ischemia of Example III were analyzed for the number of premature ventricular depolarizations (PVD) and ventricular tachycardia (VTAC) episodes.

[5] = tested on: human splenic lymphoblast cell line (WI-L2); experiment: Adenosine excretion by human lymphoblasts during ATP breakdown (2-deoxyglucose); format: cell-based
Procedure: (§3) The history and properties of the cell line have been described by Hershfield et al. in Science, Vol. 197, p. 1284, 1977.
(§4) Catabolism of cellular ATP stores was stimulated by adding either 2-deoxyglucose or a calcium ionophore. At various times, the amount of adenosine released by the cells into the supernatant, or the amount of nucleotides remaining in the cells, was determined by mixing 30 μl of chilled 4.4N perchloric acid with 300 μl of supernatants, or by adding 300 μl of chilled 0.4N perchloric acid to the cells collected as pellets and centrifuging the mixtures at 500×G for 10 minutes at 4° C. […] 1245, 1975. Following centrifugation at 1500×G for three minutes at 4° C., the aqueous phase is removed and frozen at -20° C. until assayed for adenosine, inosine, or for nucleotides. Adenosine was evaluated isocratically on a C-18 microBondapak reverse phase column equilibrated with 4 millimolar potassium phosphate, (pH 3.4):acetonitrile 60% in water (95:5 v/v) buffer. Adenosine elutes at 8-10 minutes, and its identity was confirmed by its sensitivity to adenosine deaminase and by spiking with adenosine standards. The extracted samples from the cell pellet were analyzed for nucleotides by high pressure liquid chromatography on a Whatman Partisil-10 (SAX) column equilibrated with 10 millimolar potassium phosphate, pH 3.78, and eluted with a linear gradient to a 0.25 molar potassium phosphate, 0.5 molar KCl, pH 3.45. […] Peaks were quantitated by comparison with high pressure liquid chromatography analysis of suitable standards.
Cells were grown to about 0.5×10^6 cells/ml (mid-log phase) in FIG. 2 and to about 1.0×10^6 cells/ml (early stationary phase) in FIGS. 7-9.

[6] = tested on: isuprel-induced arrhythmias; experiment: Isoproterenol (isuprel)-induced arrhythmias; format: in vivo, rat; conditions: 1000 mg/kg intraperitoneally
Procedure: Five minutes later both animals were anesthetized with 330 mg/kg of chloral hydrate injected intraperitoneally. Then a single EKG lead was attached to each rat for simultaneous recording of the paired rats' electrocardiograms. To produce arrhythmia, each rat was injected subcutaneously with isuprel […].
Beginning 30 minutes after isuprel introduction, the electrocardiograph recording paper speed was run (5 cm/sec) for 10 minutes to count the arrhythmic beats of both animals.

[7] = tested on: adenylosuccinase deficiency (autism); experiment: Therapeutic trial in patients with adenylosuccinase deficiency (autism); format: in vivo, human
Excerpt: as §2

myocardial infarct = experiment: Myocardial infarct size after tying off the left anterior descending coronary artery; format: in vivo, rat; conditions: bolus then osmotic mini-pump infusion, three weeks; p<0.05
Excerpt: The animals were continuously exposed by infusion of either AICA riboside in saline or saline using osmotic mini-pumps well known to those in the art. After three weeks, the rats were sacrificed and infarct size quantitated by planimarizing stained sections of fixed hearts.

[8] = tested on: HPRT+ neuroblastoma cells; experiment: Adenosine excretion by ionophore-stimulated HPRT+ neuroblastoma cells; format: cell-based; conditions: for Concentration of Adenosine: HPRT+, AICA riboside 50 μM
Procedure: as §3, §4
To induce ATP catabolism, the growth medium was replaced by medium containing micromolar amounts of the calcium ionophore A23187 and 1.0 μM deoxycoformycin.

[9] = one hour after intravenous administration
[10] = dogs 1-6 of the AICA riboside group
[11] = after two months of continuous administration

NC(=O)c1ncn([C@@H]2O[C@H](CO)[C@@H](O)[C@H]2O)c1N [AICA riboside, 5-amino-4-imidazolecarboxamide riboside]
adenosine washout on reperfusion (adenosine; 1 minute after reperfusion): significant rise | peak adenosine level, coronary venous blood (adenosine; 1 minute of ischemia, saline peak 0.22 +/-0.08 at 10 minutes): 1.79 ± 0.35 µM | adenosine level, coronary venous blood (adenosine; 60 minutes of ischemia, saline undetectable): 0.18 ± 0.15 µM | venous adenosine prior to ischemia (adenosine; before and during infusion): < 0.01 µM | adenosine in blood from the right atrium (systemic blood) (adenosine; dog, in vivo): no detectable adenosine | concentration [1]: 27.2 µM | AICA riboside in plasma and CSF ([2]; all dosages used, oral 5 to 2×10 mg/kg/day and intravenous 20 mg/kg/day): could not be detected | AICA riboside in plasma [2, 9]: undetectable in plasma | AICA riboside triphosphate in the erythrocytes [2, 9]: had similarly accumulated in the erythrocytes | concentrations of AICA riboside triphosphate reached in erythrocytes ([2]; oral as well as intravenous administration): of the same magnitude as those of GTP | supernatant leukotriene C4 concentration ([3]; 100 μM for six days, A23187 challenge 20 minutes, control 51): 13 nanograms/10^6 cells | inhibition at 100 µM ([3]; Mus musculus, Mast cell, 100 μM pretreatment for six days, p<0.01, read-out: reduction of leukotriene C4 release): 75% | regional myocardial blood flow to the ischemic myocardium versus saline (ischemic myocardium; 5 and 60 minutes of occlusion): significantly greater | flow to normal (non-ischemic) myocardium (ischemic myocardium; dog, in vivo): did not alter flow to normal myocardium | collateral blood flow versus saline (radiolabelled microspheres) (ischemic myocardium; dogs of Example IX): significantly greater | arterial blood gas-content and systemic venous granulocyte counts versus saline [4]: not significantly different | systemic arterial pressure and heart rate versus saline [4]: no significant differences | VTAC, average (arrhythmias; average of six dogs, saline 18.2, p<0.01): 4.7 EPISODES/H | PVD, average (arrhythmias; average of six dogs, saline 112.2, p<0.01): 37.8 EPISODES/H | PVD, individual dogs (arrhythmias; [10]): 12 EPISODES/H and 10 EPISODES/H and 182 EPISODES/H and 4 EPISODES/H and 13 EPISODES/H and 6 EPISODES/H | VTAC, individual dogs (arrhythmias; [10]): 1 EPISODES/H and 0 EPISODES/H and 27 EPISODES/H | adenosine release from lymphoblasts ([5]; 48-hour pretreatment, 100-500 micromolar (FIG. 2)): enhances adenosine release | adenosine excreted ([5]; 48-hour pretreatment, 500 micromolar AICA riboside, about 1.4 without drug): about 2.3 nanomoles of adenosine/10^6 WI-L2 cells | adenosine release from lymphoblasts ([5]; 18 hours preincubation before 2-deoxyglucose exposure (FIG. 7)): enhanced adenosine release | adenosine release from lymphoblasts ([5]; three-hour preincubation and four-hour incubation during 2-deoxyglucose treatment (FIGS. 8, 9)): increased adenosine release | reduction in paroxysmal ventricular contractions [6]: 39% | ventricular fibrillation [6]: complete suppression | autistic features, older patient [7, 11]: did not show any modification | autistic features, younger sibling [7, 11]: clear-cut improvement | haematology and clinical chemistry parameters ([7]; before and during the trial treatment): normal | parent's description of both patients ([7]; during therapy): more pleasantly active and more easy to handle during therapy | clinical or biochemical side effects ([7]; oral 5 mg/kg/day up to 2×10 mg/kg/day): no adverse effects; also recorded: No clinical or biochemical side effects were observed | reduction of infarct size compared to saline-treated controls (myocardial infarct): 33% | adenosine secreted by treated cells versus control cells ([8]; 50 μM AICA riboside, A23187 and 1.0 μM deoxycoformycin): at least twofold more adenosine than control cells | Concentration of Adenosine ([8]; ionophore 0 μg/ml): < 0.01 µM | Concentration of Adenosine ([8]; ionophore 10 μg/ml, control 0.329): 0.698 µM
